Source: patent US20090111836A1, “Angular Pyranocoumarins, Process for Preparation and Uses Thereof” (CITY UNIVERSITY OF HONG KONG, priority 2007, published 2009)
Entries after “also recorded” stand apart in the source; their conditions may differ.

Tests used:
KB V1 cells = experiment: Reversal of multidrug resistance (fold decrease of anticancer drug IC50), KB V1; assay type: cell-based, human
Procedure: Cells and cell culture: cell lines used in the experiments are human hepatoma cell line (HepG2), human leukemia cell line (K562), human epidermoid carcinoma cell line (KB-3-1) and their multidrug resistant sublines HepG2-DR, K562-DR. and KB V1. The culture conditions for all cells are following: at 37° C. and 5% CO2), KB-3-1 and KBV1 were cultured in MEM medium containing 10% fetal bovine serum and 100 U/mL antibiotics; K562, K562-DR, HepG2, HepG2-DR were cultured in RPMI-1640 medium containing 10% fetal bovine serum and 100 U/mL, antibiotics. For maintaining the phenotypic characteristics of multidrug resistance, 1.2 μM and 0.1 μM doxorubicin were respectively added into the mediums of HepG2-DR and K562-DR; 200 ng/mL vinblastine was added into the medium of KBV1. Drug resistant cells were grown in drug free medium for at least 7 days before test.
Each growth inhibition experiment must be repeated three times and results are expressed as mean±standard deviation (SD). Solvents and media were included as blank control.
In SRB assay, cells are inoculated at 5000 cells/well in a 96-well microplate and incubated overnight to let cells adhere. Drug treatment lasts for 72 hours and cells are fixed for 1 hour at 4° C. with 50 μl ice-cold 15% trichloroacetic acid and washed with triple-distilled water 5 times. Cellular protein is stained by adding 50 μl of 0.4% SRB in 1% acetic acid for 10 minutes, rinsed with 1% acetic acid 5 times and air-dried. The protein-bound dye is dissolved in 100 μl per well of 10 mM Tris base (pH 10.5). The color intensity of SRB, which positively correlate to cell number in preliminary experiments, is estimated at OD 515 nm.
1. Materials and methods: the same with I.
To evaluate the multidrug resistance reversing ability of (±)-Praeruptorin A derivatives, IC50 values of anticancer drugs in the presence and absence of cis-DMDCK, cis-DMDBK, trans-DMDCK, or trans-DMDBK at certain concentration were determined in HepG2-DR, K562-DR and KB V1 cells. The fold decrease of IC50 value of an anticancer drug in certain cell line achieved by a test compound is calculated (fold decrease=IC50 of an anti-tumor drug alone/IC50 of the anti-tumor drug in combination with the test compound) and is used for evaluating the ability of the test compound to reduce drug resistance. The larger the fold decrease value is, the stronger its ability to reverse drug resistance is. The results were average values of three repetitive tests. Verapamil (P-glycoprotein modulator) is the positive control.

P-gp [1] = experiment: Immunoblotting analysis of P-gp expression, K562-DR; assay type: cell-based, human; settings: 4 μM, 72 hours
Procedure: (§1) Immunoblotting analysis of P-gp expression: cells were treated with 4 μM of cis-DMDCK, 4 μM of cis-DMDBK, 4 μM of trans-DMDCK, or 4 μM of trans-DMDBK for 72 hours. Treated cells were collected and mixed well in ice-cold lysis buffer (50 mM Tris pH7.4, 100 mM NaCl, 2 mM EDTA, 1% sodium deoxycholate, 0.1% SDS, 1% triton X-100, 2 mM PMSF, 1% aprotinin) for 30 minutes and then centrifuged to get the total protein. Protein concentration was determined using Bradford assay. In this experiment, 50 μg total protein was separated by 8% SDS-PAGE and electro-transferred to nitrocellulose membranes. The membrane was blocked by 5% skim milk/0.1% Tween-20/TBS (10 mM Tris pH7.5, 100 mM NaCl), and then incubated with anti-P-pg antibody for 1 hour, followed by horseradish-peroxidase-conjugated secondary antibody for another 1 hour. Protein bands were detected by the ECL method.

P-gp [2] = molecular target: P-gp (Homo sapiens, UniProt P08183); experiment: Hoechst 33342 efflux assay, HepG2-DR; assay type: cell-based; parameters: KB V1, HepG2-DR and K562-DR cell expressed P-gp at high level when compared with parental drug sensitive cells thereof; endogenous in cells; host or cells: HepG2-DR (doxorubicin-maintained multidrug resistant subline of HepG2)
Sequence of P-gp (Homo sapiens, UniProt P08183) (P08183 whole entry): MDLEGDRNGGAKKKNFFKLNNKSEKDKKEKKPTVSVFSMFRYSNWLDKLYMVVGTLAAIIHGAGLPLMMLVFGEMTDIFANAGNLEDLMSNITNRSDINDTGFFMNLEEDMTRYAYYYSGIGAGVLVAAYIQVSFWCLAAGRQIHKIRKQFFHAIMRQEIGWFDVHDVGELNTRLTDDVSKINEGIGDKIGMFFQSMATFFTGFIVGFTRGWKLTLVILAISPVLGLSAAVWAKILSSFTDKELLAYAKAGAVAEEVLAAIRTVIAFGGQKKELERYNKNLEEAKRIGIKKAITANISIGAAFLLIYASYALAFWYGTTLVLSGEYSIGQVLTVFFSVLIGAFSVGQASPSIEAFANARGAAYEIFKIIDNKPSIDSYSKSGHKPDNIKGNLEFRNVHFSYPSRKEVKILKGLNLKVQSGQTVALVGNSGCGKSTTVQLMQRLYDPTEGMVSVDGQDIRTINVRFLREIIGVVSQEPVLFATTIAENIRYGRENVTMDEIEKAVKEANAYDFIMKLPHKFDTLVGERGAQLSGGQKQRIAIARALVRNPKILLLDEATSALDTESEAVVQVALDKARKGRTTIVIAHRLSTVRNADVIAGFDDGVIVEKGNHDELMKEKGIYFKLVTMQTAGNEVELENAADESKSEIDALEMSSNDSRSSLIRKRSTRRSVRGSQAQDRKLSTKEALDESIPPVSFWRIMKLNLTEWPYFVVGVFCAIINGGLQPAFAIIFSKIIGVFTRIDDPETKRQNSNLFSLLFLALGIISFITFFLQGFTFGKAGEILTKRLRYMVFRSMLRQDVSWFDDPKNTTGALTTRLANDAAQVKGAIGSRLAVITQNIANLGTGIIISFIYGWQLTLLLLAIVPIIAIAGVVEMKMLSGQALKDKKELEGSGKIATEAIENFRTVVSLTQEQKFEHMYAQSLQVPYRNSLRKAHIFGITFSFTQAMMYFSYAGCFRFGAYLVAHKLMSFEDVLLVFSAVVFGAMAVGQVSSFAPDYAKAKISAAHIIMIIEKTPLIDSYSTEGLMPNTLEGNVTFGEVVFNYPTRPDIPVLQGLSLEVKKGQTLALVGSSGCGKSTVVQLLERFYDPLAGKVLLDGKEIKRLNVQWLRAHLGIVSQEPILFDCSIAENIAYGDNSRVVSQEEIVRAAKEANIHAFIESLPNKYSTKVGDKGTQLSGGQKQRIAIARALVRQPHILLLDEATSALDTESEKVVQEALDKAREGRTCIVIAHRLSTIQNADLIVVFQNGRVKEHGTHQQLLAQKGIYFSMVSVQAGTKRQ
Procedure: Relative amount of intracellular H33342 (%)=100×(FS−F0)/F0
(Fs: cellular fluorescence intensity of H33342 in the presence of a testing drug; F0: cellular fluorescence intensity of H33342 in the absence of any P-gp modulator).
1.4 Hoechst 33342 transport test: HepG2-DR Cells (5×10^4 cells in 100 μL, medium per well) were seeded in 96-well plate and incubated overnight to permit cell attachment. The medium was replaced with fresh medium containing 20 μg/mL Hoechst 33342 and cells were incubated at 37° C. for 1 hour. Cells were then washed with 100 μL ice-cold PBS twice. New medium containing the test compound of various concentrations was added and cells were further incubated at 37° C. for 1 hour. Cells were washed with ice-cold PBS twice and cellular fluorescence intensity was measured at λex=365 nm (λem=460 nm) by a BMG FLUOstar OPTIMA Microplate Reader. Inhibitory effect of the test compound on Hoechst 33342 efflux was expressed as the percentage increase of retained Hoechst 33342 in cells.

K562-DR cells = experiment: MTT growth inhibition assay, K562-DR; assay type: cell-based, human; settings: IC50 K562-DR / IC50 K562
Procedure: K562, K562-DR, HepG2, HepG2-DR were cultured in RPMI-1640 medium containing 10% fetal bovine serum and 100 U/mL, antibiotics. […] Drug test: […] New calorimetric cytotoxicity assay for anticancer-drug screening. […] Mosmann T. Rapid colorimetric assay for cellular growth and survival: application to proliferation and cytotoxicity assays. […] Gerlier D, Thomasset N. […] Each growth inhibition experiment must be repeated three times and results are expressed as mean±standard deviation (SD). Solvents and media were included as blank control. In MTT assay, cells are inoculated at 5000 cells/well and are incubated overnight. Drug treatment lasts for 68 h. MTT (5 mg/ml in PBS) is added to each well (1:10 dilution). […] Viable cell number is estimated by correlating to OD at 570 nm.

P-gp [3] = experiment: Immunoblotting analysis of P-gp expression, KB V1; assay type: cell-based, human; settings: KB V1, 4 μM, 72 hours
Procedure: as §1

COc1ccc(C(=O)O[C@@H]2c3c(ccc4ccc(=O)oc34)OC(C)(C)[C@@H]2OC(=O)c2ccc(OC)c(OC)c2)cc1OC (racemic) [cis-DMDBK, (±)-3′-O,4′-O-bis(3,4-dimethoxybenzoyl)-cis-khellactone]
Reversing parameter: fold decrease of IC50, verapamil (KB V1 cells; KB V1, 2 μM test compound): 6.8 ± 2.9 fold
Reversing parameter: fold decrease of IC50 of Doxorubicin (KB V1 cells; KB V1, 2 μM test compound): 5.6 ± 2.4 fold
Reversing parameter: fold decrease of IC50 of Puromycin (KB V1 cells; KB V1, 2 μM test compound): 15.4 ± 3.3 fold
Reversing parameter: fold decrease of IC50 of Vinblastine (KB V1 cells; KB V1, 2 μM test compound): 3.5 ± 1.4 fold
Reversing parameter: fold decrease of IC50, verapamil (KB V1 cells; KB V1, 4 μM test compound): 83.3 ± 35.3 fold
Reversing parameter: fold decrease of IC50 of Doxorubicin (KB V1 cells; KB V1, 4 μM test compound): 16.1 ± 9.5 fold
Reversing parameter: fold decrease of IC50 of Puromycin (KB V1 cells; KB V1, 4 μM test compound): 36.8 ± 16.6 fold
Reversing parameter: fold decrease of IC50 of Vinblastine (KB V1 cells; KB V1, 4 μM test compound): 51.6 ± 11.0 fold
Change in P-gp (MDR1) expression level (P-gp [1]): no detectable alteration; also recorded: not observed
Highest increase of cellular Hoechst 33342 fluorescence (P-gp [2]; 10 μM): 200%
Resistant ratio (K562-DR cells): 0.91
Change in P-gp (MDR1) expression level (P-gp [3]): no detectable alteration; also recorded: not observed

COc1ccc(C(=O)O[C@@H]2[C@@H](OC(=O)c3ccc(OC)c(OC)c3)c3c(ccc4ccc(=O)oc34)OC2(C)C)cc1OC (racemic) [trans-DMDBK, (±)-3′-O,4′-O-bis(3,4-dimethoxybenzoyl)-trans-khellactone]
Reversing parameter: fold decrease of IC50, verapamil (KB V1 cells; KB V1, 4 μM test compound): 2.2 ± 0.4 fold
Reversing parameter: fold decrease of IC50 of Doxorubicin (KB V1 cells; KB V1, 4 μM test compound): 2.7 ± 0.9 fold
Reversing parameter: fold decrease of IC50 of Puromycin (KB V1 cells; KB V1, 4 μM test compound): 8.4 ± 4.2 fold
Reversing parameter: fold decrease of IC50 of Vinblastine (KB V1 cells; KB V1, 4 μM test compound): 1.4 ± 0.2 fold
Change in P-gp (MDR1) expression level (P-gp [1]): no detectable alteration; also recorded: not observed
Highest increase of cellular Hoechst 33342 fluorescence (P-gp [2]; 20 μM): about 150%
Resistant ratio (K562-DR cells): 1.50
Change in P-gp (MDR1) expression level (P-gp [3]): no detectable alteration; also recorded: not observed

COc1ccc(/C=C/C(=O)O[C@@H]2c3c(ccc4ccc(=O)oc34)OC(C)(C)[C@@H]2OC(=O)/C=C/c2ccc(OC)c(OC)c2)cc1OC (racemic) [cis-DMDCK, (±)-3′-O,4′-O-bis(3,4-dimethoxycinnamoyl)-cis-khellactone]
Reversing parameter: fold decrease of IC50, verapamil (KB V1 cells; KB V1, 1 μM test compound): 9.0 ± 9.7 fold
Reversing parameter: fold decrease of IC50 of Doxorubicin (KB V1 cells; KB V1, 1 μM test compound): 8.9 ± 2.3 fold
Reversing parameter: fold decrease of IC50 of Puromycin (KB V1 cells; KB V1, 1 μM test compound): 37.0 ± 14.4 fold
Reversing parameter: fold decrease of IC50 of Vinblastine (KB V1 cells; KB V1, 1 μM test compound): 2.3 ± 0.8 fold
Reversing parameter: fold decrease of IC50, verapamil (KB V1 cells; KB V1, 2 μM test compound): 128.2 ± 53.8 fold
Reversing parameter: fold decrease of IC50 of Doxorubicin (KB V1 cells; KB V1, 2 μM test compound): 19.1 ± 11.1 fold
Reversing parameter: fold decrease of IC50 of Puromycin (KB V1 cells; KB V1, 2 μM test compound): 61.4 ± 31.3 fold
Reversing parameter: fold decrease of IC50 of Vinblastine (KB V1 cells; KB V1, 2 μM test compound): 115.0 ± 17.6 fold
Reversing parameter: fold decrease of IC50, verapamil (KB V1 cells; KB V1, 4 μM test compound): 499.8 ± 202.8 fold
Reversing parameter: fold decrease of IC50 of Doxorubicin (KB V1 cells; KB V1, 4 μM test compound): 50.0 ± 19.1 fold
Reversing parameter: fold decrease of IC50 of Puromycin (KB V1 cells; KB V1, 4 μM test compound): 131.0 ± 7.1 fold
Reversing parameter: fold decrease of IC50 of Vinblastine (KB V1 cells; KB V1, 4 μM test compound): 331.2 ± 155.4 fold
Change in P-gp (MDR1) expression level (P-gp [1]): no detectable alteration; also recorded: not observed
Highest increase of cellular Hoechst 33342 fluorescence (P-gp [2]; 5 μM): 200%
Resistant ratio (K562-DR cells): 1.29
Change in P-gp (MDR1) expression level (P-gp [3]): no detectable alteration; also recorded: not observed

COc1ccc(/C=C/C(=O)O[C@@H]2[C@@H](OC(=O)/C=C/c3ccc(OC)c(OC)c3)c3c(ccc4ccc(=O)oc34)OC2(C)C)cc1OC (racemic) [trans-DMDCK, (±)-3′-O,4′-O-bis(3,4-dimethoxycinnamoyl)-trans-khellactone]
Reversing parameter: fold decrease of IC50, verapamil (KB V1 cells; KB V1, 4 μM test compound): 6.0 ± 3.1 fold
Reversing parameter: fold decrease of IC50 of Puromycin (KB V1 cells; KB V1, 4 μM test compound): 15.3 ± 2.5 fold
Change in P-gp (MDR1) expression level (P-gp [1]): no detectable alteration; also recorded: not observed
Highest increase of cellular Hoechst 33342 fluorescence (P-gp [2]; 20 μM): about 150%
Resistant ratio (K562-DR cells): 1.42
Change in P-gp (MDR1) expression level (P-gp [3]): no detectable alteration; also recorded: not observed
